Experimental data as given in ChEMBL document CHEMBL1130260, “A strategy for the incorporation of water molecules present in a ligand binding site into a three-dimensional quantitative structure--activity relationship analysis” (J Med Chem, 1997).

target: Glycogen phosphorylase, muscle form (Oryctolagus cuniculus) (UniProt P00489); settings: Muscle tissue
Sequence (P00489 whole entry, looked up): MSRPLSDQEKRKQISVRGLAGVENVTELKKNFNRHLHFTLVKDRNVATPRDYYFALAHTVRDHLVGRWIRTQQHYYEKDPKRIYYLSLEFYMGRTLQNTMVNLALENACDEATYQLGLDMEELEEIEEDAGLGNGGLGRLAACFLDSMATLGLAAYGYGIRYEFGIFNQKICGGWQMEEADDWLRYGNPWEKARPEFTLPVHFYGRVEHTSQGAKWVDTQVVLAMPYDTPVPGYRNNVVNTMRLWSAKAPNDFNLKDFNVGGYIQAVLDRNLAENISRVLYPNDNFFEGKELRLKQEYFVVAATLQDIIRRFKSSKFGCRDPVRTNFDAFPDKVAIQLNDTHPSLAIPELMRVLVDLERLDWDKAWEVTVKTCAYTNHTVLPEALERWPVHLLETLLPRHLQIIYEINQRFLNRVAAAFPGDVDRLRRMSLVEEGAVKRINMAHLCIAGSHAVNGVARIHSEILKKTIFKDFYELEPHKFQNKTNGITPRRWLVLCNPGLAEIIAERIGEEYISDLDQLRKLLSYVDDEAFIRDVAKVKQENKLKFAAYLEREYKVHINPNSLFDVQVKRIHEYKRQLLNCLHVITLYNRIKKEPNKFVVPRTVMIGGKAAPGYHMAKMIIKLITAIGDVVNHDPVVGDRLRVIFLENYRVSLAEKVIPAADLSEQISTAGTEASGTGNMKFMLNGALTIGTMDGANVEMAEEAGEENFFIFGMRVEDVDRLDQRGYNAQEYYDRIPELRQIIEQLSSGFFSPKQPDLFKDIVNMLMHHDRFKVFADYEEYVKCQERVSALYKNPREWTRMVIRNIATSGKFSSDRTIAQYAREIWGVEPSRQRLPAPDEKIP

Compound | pKi
CS(=O)(=O)OC[C@]1(O)O[C@@H](CO)[C@@H](O)[C@H](O)[C@@H]1O | 2.43
NCC1OC(CO)C(O)C(O)C1O (stereo in doubt; 19) | 1.78
CNC(=O)C1OC(CO)C(O)C(O)C1O (stereo not drawn) | 3.8
O=C1N[C@@]2(O[C@@H](CO)[C@@H](O)[C@H](O)[C@@H]2O)C(=O)N1O | 4.41
OCC1OC(S)C(O)C(O)C1O (stereo not drawn) | 3
O=C(CS[C@H]1O[C@H](CO)[C@@H](O)[C@H](O)[C@H]1O)Nc1ccccc1 | 2.44
CC(=O)NCC(=O)N[C@H]1O[C@H](CO)[C@@H](O)[C@H](O)[C@H]1O | 3
COC(=O)C1OC(CO)C(O)C(O)C1O (stereo in doubt; 4) | 1.62
CS(=O)(=O)OCC1OC(CO)C(O)C(O)C1O (stereo not drawn) | 2.32
NN1C(=O)N[C@@]2(O[C@@H](CO)[C@@H](O)[C@H](O)[C@@H]2O)C1=O | 3.84
O=C(CBr)N[C@H]1O[C@@H](CO)[C@@H](O)[C@H](O)[C@@H]1O | 4.36
CCC(=O)N[C@H]1O[C@H](CO)[C@@H](O)[C@H](O)[C@H]1O | 4.41
NC(=O)N[C@H]1O[C@H](CO)[C@@H](O)[C@H](O)[C@H]1O | 3.85
O=C(CS[C@H]1O[C@H](CO)[C@@H](O)[C@H](O)[C@H]1O)Nc1ccc(F)cc1F | 1.72
[N-]=[N+]=NC[C@H]1O[C@H](CO)[C@@H](O)[C@H](O)[C@H]1O | 1.65
O=C(N[C@H]1O[C@H](CO)[C@@H](O)[C@H](O)[C@H]1O)c1ccccc1 | 4.09
O=C(Nc1ccccc1)C1OC(CO)C(O)C(O)C1O (stereo not drawn) | 2.27
NNC(=O)[C@@H]1O[C@H](CO)[C@@H](O)[C@H](O)[C@H]1O (stereo in doubt; 14) | 3.4
CCCC(=O)N[C@H]1O[C@H](CO)[C@@H](O)[C@H](O)[C@H]1O | 4.03
CC(=O)NN1C(=O)N[C@@]2(O[C@@H](CO)[C@@H](O)[C@H](O)[C@@H]2O)C1=O | 3.26

The next lines start with the values.

pKi | Compound
1.82 | [N-]=[N+]=NC[C@@H]1O[C@H](CO)[C@@H](O)[C@H](O)[C@H]1O
4.07 | COC(=O)N[C@@H]1O[C@H](CO)[C@@H](O)[C@H](O)[C@H]1O
2.59 | OC[C@@H]1O[C@H](n2cc(O[C@@H]3O[C@H](CO)[C@@H](O)[C@H](O)[C@H]3O)c3ccccc32)[C@@H](O)[C@@H](O)[C@@H]1O
1.68 | NC(=O)CS[C@H]1O[C@H](CO)[C@@H](O)[C@H](O)[C@H]1O
2.59 | O=C(NCCO)[C@H]1O[C@@H](CO)[C@@H](O)[C@H](O)[C@@H]1O
2.35 | NCCC1OC(CO)C(O)C(O)C1O (stereo not drawn)
2.09 | O=C(NCC(F)(F)F)[C@H]1O[C@@H](CO)[C@@H](O)[C@H](O)[C@@H]1O
3.43 | NCC(=O)N[C@H]1O[C@@H](CO)[C@@H](O)[C@H](O)[C@@H]1O
2.82 | OCC1OC(CO)C(O)C(O)C1O (stereo not drawn)
1.79 | OC[C@H]1O[C@H](OCC2O[C@@H](O)[C@H](O)[C@@H](O)[C@@H]2O)[C@H](O)[C@@H](O)[C@H]1O (stereo partly drawn)
2.36 | O=C(Nc1ccc(O)cc1)[C@H]1O[C@@H](O)[C@@H](O)[C@H](O)[C@@H]1O
2.55 | COC(=O)C1OC(CO)C(O)C(O)C1O (stereo in doubt; 18)
1.8 | OC[C@@H]1O[C@@](O)(CO)[C@@H](O)[C@@H](O)[C@@H]1O
3.36 | NC(=O)C1OC(CO)C(O)C(O)C1O (stereo in doubt; 9)
4.35 | O=C(CCl)N[C@H]1O[C@H](CO)[C@@H](O)[C@H](O)[C@H]1O
2.75 | CNNC(=O)[C@H]1O[C@H](CO)[C@@H](O)[C@H](O)[C@H]1O
3.5 | COC(=O)N[C@]1(C(N)=O)O[C@H](CO)[C@@H](O)[C@H](O)[C@H]1O (stereo in doubt; 49)
1.46 | NCC1OC(CO)C(O)C(O)C1O (stereo in doubt; 5)
2.05 | N#CC[C@@H]1O[C@H](CO)[C@@H](O)[C@H](O)[C@H]1O
2.13 | [N-]=[N+]=NC[C@@]1(O)O[C@@H](CO)[C@@H](O)[C@H](O)[C@@H]1O
3.43 | NC(=O)C1OC(CO)C(O)C(O)C1O (stereo in doubt; 2)
4.22 | O=C1CNC(=O)[C@@]2(N1)O[C@@H](CO)[C@@H](O)[C@H](O)[C@@H]2O
2.89 | O=C(NC1CC1)[C@H]1O[C@@H](CO)[C@@H](O)[C@H](O)[C@@H]1O
4.8 | COC(=O)N[C@]1(C(N)=O)O[C@H](CO)[C@@H](O)[C@H](O)[C@H]1O (stereo in doubt; 35)
2.12 | N#CC[C@]1(O)O[C@H](CO)[C@@H](O)[C@H](O)[C@H]1O
2.52 | NNC(=O)[C@@H]1O[C@H](CO)[C@@H](O)[C@H](O)[C@H]1O (stereo in doubt; 3)
2.7 | OC[C@@H]1O[C@H](OC[C@H]2S[C@H](O)[C@H](O)[C@@H](O)[C@@H]2O)[C@@H](O)[C@@H](O)[C@@H]1O
4.5 | CC(=O)N[C@H]1O[C@H](CO)[C@@H](O)[C@H](O)[C@H]1O
